Assay results taken from patent US9023876B2, “Compounds and methods for regulating integrins” (Adhaere Pharmaceuticals, Inc., priority 2010, dated 2015).

How the values were obtained:
[1] = tested on: B6 male mice; test: Renal I/R injury in mice; type: in vivo, mouse; conditions: given 30 min prior to I/R injury, 24 h post-ischemia, vs DMSO; not shown
Procedure: Leukadherins reduce renal I/R injury. To evaluate use of leukadherins in the I/R injury induced changes in the kidney function of WT mice, we performed another experiment. B6 male mice (8-12 weeks of age) were anesthetized and kept on a heating pad to keep them at a constant 37° C. temperature. Next, an abdominal incision was made and the renal pedicles were occluded bilaterally with a nontraumatic vascular clamp for 30 minutes, the clamp then removed and the surgical incision was closed. Sham surgery was performed with an identical procedure but without application of the clamps. Renal I/R injury was assessed at 24 h post-ischemia by measuring the serum creatinine levels. Mouse sera from the tail incision was used for the analyses of sCr (and BUN levels (not shown)) using manual kits (Stanbio Laboratory).

[2] = tested on: WT B6 mice; test: Thioglycollate-induced peritonitis, WT mice; type: in vivo, mouse; conditions: vs vehicle
Procedure: Thioglycollate-induced peritonitis was performed as previously described, using 8-10 week old WT B6 and CD11b^−/− B6 mice. Leukadherin agonists were administered thirty min prior to intra peritoneal (i.p.) thioglycollate (3%) injection. LA1 and LA2 ([…] of 20 mM solution in saline) were administered intra venously (i.v.). LA3 was administered i.p. (1 mL of 20 mM solution in saline). To evaluate peritoneal neutrophil recruitment, […], the peritoneal lavage was collected and the number of emigrated neutrophils was quantified using double positive cells for GR-1 and Mac-1 staining as described.
To determine the effects of LA1-3 on inflammatory responses in vivo, we monitored their effects on neutrophil recruitment upon acute thioglycollate-induced peritonitis in mice.

[3] = molecular target: T1, mutant integrin CD11bE320A/CD18 (Homo sapiens, UniProt P11215, E336A); test: Adhesion of K562 E320A cells to immobilized Fg; type: cell-based
T1 construct: expressed in transfected cells; host or cells: K562
Procedure: K562 cells (ATCC) stably transfected with wild-type integrin CD11b/CD18 (K562 CD11b/CD18) have been described previously. Mutant CD11bE320A has been described previously. K562 cells stably transfected with mutant integrin CD11bE320A/CD18 (K562 E320A) were generated according to literature protocols. All cell lines were maintained in Iscove's Modified Dulbecco's Medium (IMDM) supplemented with 10% heat-inactivated fetal bovine serum, 50 IU/ml penicillin and streptomycin and 0.5 mg/ml G418.
Cell adhesion assays with immobilized ligands were performed as previously described. Assays with all different K562 cell lines (K562, K562 CD11b/CD18 and K562 E320A) were performed in an identical fashion. Briefly, 384-well Highbind microtiter plates were coated with a 30 μL solution of ligand in Phosphate Buffered Saline, pH 7.4 containing 1 mM each of Ca^2+ and Mg^2+ ions (PBS^++) overnight at 4° C. Ligand Fg was coated at a concentration of […] and iC3b at […]. Heterodimer specific mAb IB4 (ascites) was coated at a 1:100 dilution. […] Cells remaining adherent were fixed using formaldehyde and were quantitated using imaging microscopy, as previously described. […]

T1 sequence (P11215 17-1152 E336A): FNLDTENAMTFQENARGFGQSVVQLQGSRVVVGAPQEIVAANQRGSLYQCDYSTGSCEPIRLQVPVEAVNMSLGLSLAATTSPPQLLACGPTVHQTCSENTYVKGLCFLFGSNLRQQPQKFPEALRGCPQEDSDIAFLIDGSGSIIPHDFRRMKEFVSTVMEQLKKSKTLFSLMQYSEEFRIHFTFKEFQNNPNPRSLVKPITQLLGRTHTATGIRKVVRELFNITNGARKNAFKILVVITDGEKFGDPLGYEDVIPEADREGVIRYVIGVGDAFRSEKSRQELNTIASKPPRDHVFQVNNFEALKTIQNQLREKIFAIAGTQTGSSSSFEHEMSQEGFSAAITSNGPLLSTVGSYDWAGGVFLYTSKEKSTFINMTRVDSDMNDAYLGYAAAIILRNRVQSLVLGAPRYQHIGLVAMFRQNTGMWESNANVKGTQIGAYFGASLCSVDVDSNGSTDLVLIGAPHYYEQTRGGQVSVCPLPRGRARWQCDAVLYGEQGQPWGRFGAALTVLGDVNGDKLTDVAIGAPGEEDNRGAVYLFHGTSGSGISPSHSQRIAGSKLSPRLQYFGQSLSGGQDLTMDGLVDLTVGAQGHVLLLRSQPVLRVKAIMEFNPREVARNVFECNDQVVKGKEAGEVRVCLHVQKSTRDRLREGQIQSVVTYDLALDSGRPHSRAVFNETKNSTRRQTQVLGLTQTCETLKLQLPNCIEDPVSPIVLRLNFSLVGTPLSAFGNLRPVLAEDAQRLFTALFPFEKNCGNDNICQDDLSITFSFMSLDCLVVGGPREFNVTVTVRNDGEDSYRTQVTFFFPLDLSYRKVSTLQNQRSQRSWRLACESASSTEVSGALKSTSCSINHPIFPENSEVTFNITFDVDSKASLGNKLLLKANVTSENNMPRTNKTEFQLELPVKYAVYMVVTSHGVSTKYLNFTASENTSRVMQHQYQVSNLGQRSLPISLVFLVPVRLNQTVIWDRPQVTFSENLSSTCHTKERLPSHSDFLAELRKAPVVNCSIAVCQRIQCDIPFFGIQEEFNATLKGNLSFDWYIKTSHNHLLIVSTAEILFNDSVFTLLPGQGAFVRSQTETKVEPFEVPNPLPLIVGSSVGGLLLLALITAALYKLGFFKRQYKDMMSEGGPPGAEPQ
T1 sequence (P05107 23-769 partner): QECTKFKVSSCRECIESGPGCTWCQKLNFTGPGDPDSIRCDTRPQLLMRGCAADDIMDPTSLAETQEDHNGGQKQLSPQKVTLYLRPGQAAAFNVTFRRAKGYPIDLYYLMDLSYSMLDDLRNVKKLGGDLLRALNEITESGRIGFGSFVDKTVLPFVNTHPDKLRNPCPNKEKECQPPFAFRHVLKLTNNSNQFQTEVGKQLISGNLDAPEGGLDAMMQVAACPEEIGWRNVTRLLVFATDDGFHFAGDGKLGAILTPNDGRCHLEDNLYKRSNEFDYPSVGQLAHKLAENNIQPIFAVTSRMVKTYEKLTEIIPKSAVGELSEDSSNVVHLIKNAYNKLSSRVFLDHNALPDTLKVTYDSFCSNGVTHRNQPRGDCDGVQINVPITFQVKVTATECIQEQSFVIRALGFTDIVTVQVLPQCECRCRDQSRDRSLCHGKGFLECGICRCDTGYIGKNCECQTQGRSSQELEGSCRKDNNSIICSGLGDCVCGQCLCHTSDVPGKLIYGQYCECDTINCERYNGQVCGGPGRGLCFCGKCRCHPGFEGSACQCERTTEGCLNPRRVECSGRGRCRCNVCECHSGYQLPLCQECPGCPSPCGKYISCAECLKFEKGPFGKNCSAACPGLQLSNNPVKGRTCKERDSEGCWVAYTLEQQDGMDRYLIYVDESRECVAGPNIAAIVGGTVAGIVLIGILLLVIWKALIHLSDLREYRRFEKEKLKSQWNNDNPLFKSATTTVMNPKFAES

Structure (SMILES): O=C(O)c1ccc(-c2ccc(/C=C3\SC(=S)N(Cc4ccccc4)C3=O)o2)cc1 [LA1]
- serum creatinine (sCr) levels [1]: significant reduction
- peritoneal neutrophil accumulation at 4 h and 12 h ([2]; TGC-induced peritonitis): significantly reduced
- peritoneal neutrophils after 24 h ([2]; TGC-induced peritonitis): comparable numbers
- reduction of peritoneal neutrophil accumulation ([2]; WT mice, given 30 min prior to thioglycollate, 4 h): 40%
- binding of K562 E320A to Fg [3]: selectively increased
